Experimental data published in PMC10518257 (Nature Cancer, 2023).
Values joined by “and” are separate entries in the source; they are usually repeats but may differ in a detail not shown here. Equal entries are not always repeated. Where two headings read alike, the source gives them in different places.

Legend:
[1] = target: T1, panel of 255 (vepafestinib) or 256 (all other inhibitors) recombinant kinases (Homo sapiens, UniProt O14757); assay: Kinase selectivity profiling at a single concentration (Carna Biosciences); assay type: biochemical; details: 23 nM
T1 construct: purchased Carna Biosciences
T1 sequence (O14757 whole entry): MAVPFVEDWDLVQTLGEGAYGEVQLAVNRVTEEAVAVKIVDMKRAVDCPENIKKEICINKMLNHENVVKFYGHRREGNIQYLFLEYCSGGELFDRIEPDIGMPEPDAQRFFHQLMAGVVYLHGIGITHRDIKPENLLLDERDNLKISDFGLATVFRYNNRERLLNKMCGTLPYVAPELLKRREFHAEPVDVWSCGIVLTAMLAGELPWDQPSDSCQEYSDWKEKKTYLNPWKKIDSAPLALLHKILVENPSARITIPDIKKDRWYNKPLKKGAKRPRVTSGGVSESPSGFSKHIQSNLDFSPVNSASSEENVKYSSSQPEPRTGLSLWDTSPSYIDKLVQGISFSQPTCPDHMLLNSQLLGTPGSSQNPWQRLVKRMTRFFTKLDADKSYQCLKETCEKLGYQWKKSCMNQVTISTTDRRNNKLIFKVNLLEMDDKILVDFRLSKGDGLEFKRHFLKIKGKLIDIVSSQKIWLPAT

[2] = target: T2, panel of 255 (vepafestinib) or 256 (all other inhibitors) recombinant kinases (Homo sapiens, UniProt P35968); assay: as above; assay type: biochemical; details: 23 nM
T2 construct: purchased Carna Biosciences
T2 sequence (P35968 20-1356): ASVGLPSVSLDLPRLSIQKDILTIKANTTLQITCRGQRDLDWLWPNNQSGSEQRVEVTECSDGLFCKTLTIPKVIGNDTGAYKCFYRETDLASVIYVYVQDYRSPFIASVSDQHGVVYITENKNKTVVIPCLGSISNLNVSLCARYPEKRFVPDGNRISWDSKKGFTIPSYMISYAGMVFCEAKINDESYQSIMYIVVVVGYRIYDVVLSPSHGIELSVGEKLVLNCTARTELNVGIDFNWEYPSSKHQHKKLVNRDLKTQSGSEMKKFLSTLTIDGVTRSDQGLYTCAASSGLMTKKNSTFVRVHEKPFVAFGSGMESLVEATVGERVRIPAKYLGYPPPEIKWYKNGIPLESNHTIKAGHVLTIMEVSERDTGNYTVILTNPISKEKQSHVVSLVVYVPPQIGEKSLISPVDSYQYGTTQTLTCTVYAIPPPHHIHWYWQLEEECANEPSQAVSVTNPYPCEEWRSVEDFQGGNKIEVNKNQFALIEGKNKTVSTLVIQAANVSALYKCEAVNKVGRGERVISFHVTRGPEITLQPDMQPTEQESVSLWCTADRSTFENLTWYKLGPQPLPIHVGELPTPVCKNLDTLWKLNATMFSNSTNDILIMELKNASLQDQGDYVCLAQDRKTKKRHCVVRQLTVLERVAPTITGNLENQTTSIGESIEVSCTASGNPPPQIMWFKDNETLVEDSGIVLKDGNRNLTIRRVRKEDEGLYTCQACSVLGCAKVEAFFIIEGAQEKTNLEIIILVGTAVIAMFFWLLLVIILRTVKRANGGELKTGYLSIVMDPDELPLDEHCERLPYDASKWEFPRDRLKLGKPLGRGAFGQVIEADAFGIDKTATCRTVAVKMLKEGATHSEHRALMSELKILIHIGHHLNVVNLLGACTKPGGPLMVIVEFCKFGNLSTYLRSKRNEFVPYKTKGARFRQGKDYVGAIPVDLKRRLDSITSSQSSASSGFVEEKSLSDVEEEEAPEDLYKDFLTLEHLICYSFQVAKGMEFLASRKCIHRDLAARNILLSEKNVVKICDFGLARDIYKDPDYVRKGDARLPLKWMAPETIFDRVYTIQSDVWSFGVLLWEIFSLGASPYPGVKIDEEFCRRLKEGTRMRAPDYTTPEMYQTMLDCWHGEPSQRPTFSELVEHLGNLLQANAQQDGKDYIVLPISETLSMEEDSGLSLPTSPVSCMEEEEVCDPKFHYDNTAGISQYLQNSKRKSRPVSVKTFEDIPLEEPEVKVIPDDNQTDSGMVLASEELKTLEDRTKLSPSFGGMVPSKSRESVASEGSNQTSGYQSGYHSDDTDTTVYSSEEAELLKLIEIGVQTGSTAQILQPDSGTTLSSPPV

[3] = target: T3, panel of 255 (vepafestinib) or 256 (all other inhibitors) recombinant kinases (Homo sapiens, UniProt Q06418); assay: as above; assay type: biochemical; details: 23 nM
T3 construct: purchased Carna Biosciences
T3 sequence (Q06418 41-890): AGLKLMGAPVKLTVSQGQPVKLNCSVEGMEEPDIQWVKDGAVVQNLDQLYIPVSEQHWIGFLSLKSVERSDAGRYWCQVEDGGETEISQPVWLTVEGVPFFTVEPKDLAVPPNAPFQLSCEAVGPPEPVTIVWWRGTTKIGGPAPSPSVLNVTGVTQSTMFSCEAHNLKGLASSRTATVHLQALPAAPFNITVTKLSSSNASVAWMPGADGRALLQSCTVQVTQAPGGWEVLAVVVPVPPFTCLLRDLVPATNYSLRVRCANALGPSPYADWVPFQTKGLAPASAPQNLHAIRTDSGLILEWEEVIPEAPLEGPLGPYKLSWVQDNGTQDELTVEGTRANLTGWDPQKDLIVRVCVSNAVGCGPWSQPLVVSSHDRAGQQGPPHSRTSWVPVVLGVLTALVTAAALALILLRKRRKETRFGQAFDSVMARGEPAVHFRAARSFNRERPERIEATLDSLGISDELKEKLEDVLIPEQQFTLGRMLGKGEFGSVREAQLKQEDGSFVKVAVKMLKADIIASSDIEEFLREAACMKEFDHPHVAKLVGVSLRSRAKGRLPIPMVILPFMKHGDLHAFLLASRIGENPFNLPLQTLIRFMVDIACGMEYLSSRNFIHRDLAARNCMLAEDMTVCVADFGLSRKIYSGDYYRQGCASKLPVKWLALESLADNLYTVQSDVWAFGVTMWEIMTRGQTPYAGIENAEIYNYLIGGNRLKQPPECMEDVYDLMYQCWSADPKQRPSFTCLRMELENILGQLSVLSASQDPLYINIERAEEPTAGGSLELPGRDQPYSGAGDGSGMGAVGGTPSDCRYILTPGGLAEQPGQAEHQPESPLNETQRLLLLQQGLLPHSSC

[4] = target: T4, panel of 255 (vepafestinib) or 256 (all other inhibitors) recombinant kinases (Homo sapiens, UniProt Q15375); assay: as above; assay type: biochemical; details: 23 nM
T4 construct: purchased Carna Biosciences
T4 sequence (Q15375 28-998): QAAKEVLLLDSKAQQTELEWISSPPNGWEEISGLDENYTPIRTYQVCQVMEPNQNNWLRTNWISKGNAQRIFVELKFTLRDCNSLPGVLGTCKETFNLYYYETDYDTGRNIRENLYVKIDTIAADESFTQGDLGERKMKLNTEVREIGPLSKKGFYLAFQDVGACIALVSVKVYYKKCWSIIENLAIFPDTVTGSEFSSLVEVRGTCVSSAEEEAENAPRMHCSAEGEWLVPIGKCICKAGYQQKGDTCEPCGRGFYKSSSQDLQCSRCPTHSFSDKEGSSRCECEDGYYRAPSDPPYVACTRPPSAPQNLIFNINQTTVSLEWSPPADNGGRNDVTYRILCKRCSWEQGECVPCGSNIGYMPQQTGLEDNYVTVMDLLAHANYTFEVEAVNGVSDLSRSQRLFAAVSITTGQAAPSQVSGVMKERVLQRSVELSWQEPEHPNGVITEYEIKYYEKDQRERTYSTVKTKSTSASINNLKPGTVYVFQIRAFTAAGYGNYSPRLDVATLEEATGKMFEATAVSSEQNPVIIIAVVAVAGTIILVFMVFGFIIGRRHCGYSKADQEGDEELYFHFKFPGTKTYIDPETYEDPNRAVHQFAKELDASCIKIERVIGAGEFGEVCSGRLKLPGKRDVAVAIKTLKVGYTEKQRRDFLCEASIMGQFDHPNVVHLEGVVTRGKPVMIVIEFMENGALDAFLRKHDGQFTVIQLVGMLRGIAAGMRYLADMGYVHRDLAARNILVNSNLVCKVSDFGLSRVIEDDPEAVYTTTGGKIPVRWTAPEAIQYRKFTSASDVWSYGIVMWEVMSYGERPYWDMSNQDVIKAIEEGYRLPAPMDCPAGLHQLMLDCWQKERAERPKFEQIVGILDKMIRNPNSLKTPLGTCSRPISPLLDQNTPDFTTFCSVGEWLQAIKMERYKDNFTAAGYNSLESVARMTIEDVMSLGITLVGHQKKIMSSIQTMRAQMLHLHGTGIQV

KDR = target: T5, KDR (Homo sapiens, UniProt P35968); assay: Dose-response IC50 on off-target kinases; assay type: biochemical
T5 construct: purchased Carna Biosciences
T5 sequence (P35968 20-1356): as the sequence (P35968 20-1356) above

[5] = system: Ba/F3 cells expressing KIF5B–RET^WT; assay: Growth inhibition assay in Ba/F3 cells (CellTiter-Glo, 72 h); assay type: cell-based
Ba/F3-CCDC6::RET = assay: as above; assay type: cell-based
[6] = system: Ba/F3 cells expressing KIF5B–RET^G810S; assay: as above; assay type: cell-based; details: replicate Sets 1-3
[7] = system: phospho-RET and phospho-ERK in Ba/F3 KIF5B–RET^WT tumors; assay: Western blotting of tumors after a single dose (target engagement); assay type: in vivo, mice; details: single dose 50 mg per kg
[8] = system: NIH-3T3 CCDC6-RET luciferase cells implanted intracranially; assay: Intracranial efficacy study; assay type: in vivo, nude mice; details: 50 mg per kg BID from day 5 after implantation
LUAD-0057AS1 PDX = assay: PDX efficacy study; details: for Change in Tumor Volume: end of study, individual tumors
[9] = system: NIH-3T3-CCDC6::RET xenografts; assay: Subcutaneous xenograft efficacy study

COCc1ccc(NC(=O)c2c(C#CCN3CCOCC3)n(C3(C)CC3)c3ncnc(N)c23)cc1 [Vepafestinib, 4-amino-N-[4-(methoxymethyl)phenyl]-7-(1-methylcyclopropyl)-6-[3-(morpholin-4-yl)prop-1-yn-1-yl]-7H-pyrrolo[2,3-d]pyrimidine-5-carboxamide]
% Inhibiton CHK1 [1]: 11.9%
% Inhibiton KDR [2]: 36%
% Inhibiton TYRO3 [3]: 8.6%
% Inhibiton EPHA7 [4]: 10.4%
IC50 (KDR): 172 nM
GI50 ([5]; Ba/3-KIF5B-RET, replicate sets): 8.96 nM and 6.78 nM
GI50 ([5]; Mus musculus, BaF3, 72 h, read-out: GI50 value (Mean ± SD), Ba/F3-KIF5B::RET, CellTiter-Glo, 72 h): 8.27 ± 1.29 nM
GI50 ([5]; Mus musculus, BaF3, Ba/3-KIF5B-RET, replicate sets): 9.06 nM
GI50 (Ba/F3-CCDC6::RET; BaF3/CCDC6-RET, 72 h, read-out: GI50 value (Mean ± SD), Ba/F3-CCDC6::RET, CellTiter-Glo, 72 h): 22 ± 9.3 nM
GI50 (Ba/F3-CCDC6::RET; read-out: GI50 values, Ba/F3-CCDC6::RET, individual sets (replicate experiments)): 14 nM and 32.2 nM and 19.9 nM
GI50 ([6]; Ba/3-KIF5B-RET-G810S): 14.7 nM and 13.1 nM
GI50 ([6]; Mus musculus, BaF3, Ba/3-KIF5B-RET-G810S): 7.93 nM
duration of complete inhibition of phospho-RET and phospho-ERK in tumors [7]: at least 8 h
median survival [8]: 52 days
tumor shrinkage (LUAD-0057AS1 PDX; 50 mg per kg BID): 44% ± 3%
Area Under Curve of tumor growth, Mean (LUAD-0057AS1 PDX; 50 mg/kg BID): -1274
Tumor volume (LUAD-0057AS1 PDX; 50 mg/kg BID, day 0, individual animals): 141.55 mm3 and 150.43 mm3 (2×) and 137.16 mm3 and 152.81 mm3 and 132.84 mm3 and 139.24 mm3 and 143.69 mm3
Tumor volume (LUAD-0057AS1 PDX; 50 mg/kg BID, day 3, individual animals): 107.44 mm3 and 102.07 mm3 (2×) and 103.92 mm3 and 105.68 mm3 (2×) and 109.36 mm3 and 109.21 mm3
Tumor volume (LUAD-0057AS1 PDX; 50 mg/kg BID, day 7, individual animals): 86.78 mm3 and 84.95 mm3 (2×) and 83.53 mm3 and 93.45 mm3 and 76.27 mm3 and 91.61 mm3 and 79.29 mm3
Tumor volume (LUAD-0057AS1 PDX; 50 mg/kg BID, day 10, individual animals): 71.99 mm3 and 84.95 mm3 and 77.63 mm3 and 80.7 mm3 (2×) and 69.38 mm3 and 74.9 mm3 and 72.18 mm3
Tumor volume (LUAD-0057AS1 PDX; 50 mg/kg BID, day 14, individual animals): 89.72 mm3 and 88.25 mm3 (2×) and 78.99 mm3 and 76.27 mm3 and 80.7 mm3 and 72.18 mm3
Tumor volume (LUAD-0057AS1 PDX; 50 mg/kg BID, day 19, individual animals): 80.35 mm3 and 77.63 mm3 and 73.3 mm3 (2×) and 71.99 mm3 and 88.25 mm3 and 72.18 mm3
Tumor volume (LUAD-0057AS1 PDX; 50 mg/kg BID, day 23, individual animals): 80.35 mm3 and 82.12 mm3 and 74.61 mm3 and 73.3 mm3 and 71.99 mm3 and 109.29 mm3
Change in Tumor Volume (LUAD-0057AS1 PDX; 50 mg/kg BID): -49.1416% and -46.5865% and -45.4098% and -45.6037% and -52.0319% and -45.807% and -21.5096% and -48.8204%
tumor shrinkage (LUAD-0057AS1 PDX; 100 mg per kg QD): 48% ± 1%
Area Under Curve of tumor growth, Mean (LUAD-0057AS1 PDX; 100 mg/kg QD): -1469
Tumor volume (LUAD-0057AS1 PDX; 100 mg/kg QD, day 0, individual animals): 145.84 mm3 (3×) and 143.69 mm3 and 141.32 mm3 and 152.81 mm3 and 139.24 mm3 and 148.22 mm3
Tumor volume (LUAD-0057AS1 PDX; 100 mg/kg QD, day 3, individual animals): 79.29 mm3 and 83.83 mm3 and 80.7 mm3 (2×) and 91.87 mm3 (3×) and 95.24 mm3
Tumor volume (LUAD-0057AS1 PDX; 100 mg/kg QD, day 7, individual animals): 71.99 mm3 and 77.87 mm3 and 69.14 mm3 and 72.18 mm3 and 69.38 mm3 and 74.61 mm3 and 80.7 mm3 and 70.69 mm3
Tumor volume (LUAD-0057AS1 PDX; 100 mg/kg QD, day 10, individual animals): 71.99 mm3 and 80.89 mm3 and 66.35 mm3 and 72.18 mm3 and 69.38 mm3 and 74.61 mm3 and 77.87 mm3 and 70.69 mm3
Tumor volume (LUAD-0057AS1 PDX; 100 mg/kg QD, day 14, individual animals): 77.63 mm3 (2×) and 83.83 mm3 and 74.61 mm3 (2×) and 69.38 mm3 and 87.03 mm3 and 75.92 mm3
Tumor volume (LUAD-0057AS1 PDX; 100 mg/kg QD, day 19, individual animals): 68.09 mm3 and 80.7 mm3 and 73.3 mm3 (2×) and 77.63 mm3 and 74.61 mm3 (2×) and 78.99 mm3
Change in Tumor Volume (LUAD-0057AS1 PDX; 100 mg/kg QD): -49.7394% and -48.9874% and -48.1319% and -52.0319% and -45.2241% and -47.703% and -43.6917% and -45.79%
Area Under Curve of tumor growth, Mean ([9]; 25 mg/kg BID): 1601
Tumor volume ([9]; 25 mg/kg BID, day 0, individual animals): 93.59 mm3 (2×) and 90.28 mm3 (3×)
Tumor volume ([9]; 25 mg/kg BID, day 2, individual animals): 193.69 mm3 and 110.58 mm3 and 112.28 mm3 and 116.25 mm3 (2×)
Tumor volume ([9]; 25 mg/kg BID, day 5, individual animals): 537.65 mm3 and 353.84 mm3 and 294.89 mm3 and 435.05 mm3 and 334.49 mm3
Tumor volume ([9]; 25 mg/kg BID, day 8, individual animals): 612.84 mm3 and 590.68 mm3 and 301.59 mm3 and 585.96 mm3 and 389.56 mm3
Tumor volume ([9]; 25 mg/kg QD, day 0, individual animals): 85.5 mm3 (2×) and 93.59 mm3 and 90.28 mm3 (2×)
Tumor volume ([9]; 25 mg/kg QD, day 5, individual animals): 285.69 mm3 and 281.26 mm3 and 438.74 mm3 and 367.92 mm3 and 382.08 mm3
Tumor volume ([9]; 25 mg/kg QD, day 8, individual animals): 705.04 mm3 and 750.45 mm3 and 1169.92 mm3 and 945.8 mm3 and 1108.35 mm3
